Target: Factor D (Homo sapiens, UniProt P00746)
Experiment: Factor D esterolytic assay (Z-Lys-SBzl thioester substrate, DTNB, 405 nm)
Assay type: biochemical
Conditions: substrate Z-Lys-SBzl 1.29 mM, 100 mM HEPES, 500 mM NaCl, pH 7.5, 10% DMSO, tested a minimum of three times
Outline: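 Run in pH 7.5 HEPES (100 mM) with 500 mM NaCl and 10% DMSO, with compound preincubated at room temperature or not before adding 1.29 mM Z-Lys-SBzl. Free thiol released by Factor D reacts with DTNB, and rate is followed at 405 nm minus 690 nm over 600 s. IC50 derives from rate-based inhibition, minimum three replicates.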

Sequence of Factor D (P00746 26-253): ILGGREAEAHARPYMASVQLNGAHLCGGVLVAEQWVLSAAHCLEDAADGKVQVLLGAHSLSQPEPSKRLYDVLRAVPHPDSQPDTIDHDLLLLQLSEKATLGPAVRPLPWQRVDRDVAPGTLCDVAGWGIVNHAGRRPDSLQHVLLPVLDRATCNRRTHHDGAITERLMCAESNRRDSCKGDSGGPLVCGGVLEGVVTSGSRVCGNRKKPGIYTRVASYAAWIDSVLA

IC50 [nM]	SMILES
< 100	Cc1cc(C(F)(F)F)cc2c3c(N)ncnc3n(CC(=O)N3C[C@H](F)C[C@H]3C(=O)Nc3cccc(Cl)n3)c12 [Compound 300a, (2S,4R)-1-(2-(4-amino-8-methyl-6-(trifluoromethyl)-9H-pyrimido[4,5-b]indol-9-yl)acetyl)-N-(6-chloropyridin-2-yl)-4-fluoropyrrolidine-2-carboxamide]
< 100	Cc1cc(C(F)(F)F)cc2c3c(N)ncnc3n(CC(=O)N3C[C@H](F)C[C@H]3C(=O)Nc3cccc(Br)n3)c12 [Compound 301a, (2S,4R)-1-(2-(4-amino-8-methyl-6-(trifluoromethyl)-9H-pyrimido[4,5-b]indol-9-yl)acetyl)-N-(6-bromopyridin-2-yl)-4-fluoropyrrolidine-2-carboxamide]
< 100	Cc1ccc(Br)nc1NC(=O)[C@@H]1C[C@@]2(C)C[C@H]2N1C(=O)Cn1c2ncnc(N)c2c2cc(C(F)(F)F)cc(C)c21 [Compound 302a, (1R,3S,5R)-2-(2-(4-amino-8-methyl-6-(trifluoromethyl)-9H-pyrimido[4,5-b]indol-9-yl)acetyl)-N-(6-bromo-3-methylpyridin-2-yl)-5-methyl-2-azabicyclo[3.1.0]hexane-3-carboxamide]
< 100	Cc1ccc(Br)nc1NC(=O)[C@@H]1C[C@H]2C[C@H]2N1C(=O)Cn1c2ncnc(N)c2c2cc(C(F)(F)F)cc(C)c21 [Compound 303a, (1R,3S,5R)-2-(2-(4-amino-8-methyl-6-(trifluoromethyl)-9H-pyrimido[4,5-b]indol-9-yl)acetyl)-N-(6-bromo-3-methylpyridin-2-yl)-2-azabicyclo[3.1.0]hexane-3-carboxamide]
< 100	Cc1cc(C(F)(F)F)cc2c3c(N)ncnc3n(CC(=O)N3C[C@](C)(F)C[C@H]3C(=O)Nc3cccc(Br)n3)c12 [Compound 304a, (2S,4R)-1-(2-(4-amino-8-methyl-6-(trifluoromethyl)-9H-pyrimido[4,5-b]indol-9-yl)acetyl)-N-(6-bromopyridin-2-yl)-4-fluoro-4-methylpyrrolidine-2-carboxamide]
< 100	Cc1cc(C(F)(F)F)cc2c3c(N)ncnc3n(CC(=O)N3C[C@](C)(F)C[C@H]3C(=O)Nc3cncc(Br)n3)c12 [Compound 305a, (2S,4R)-1-(2-(4-amino-8-methyl-6-(trifluoromethyl)-9H-pyrimido[4,5-b]indol-9-yl)acetyl)-N-(6-bromopyrazin-2-yl)-4-fluoro-4-methylpyrrolidine-2-carboxamide]
< 100	Cc1cc(C(F)(F)F)cc2c3c(N)ncnc3n(CC(=O)N3CCC[C@H]3C(=O)Nc3cccc(Br)n3)c12 [Compound 306a, (S)-1-(2-(4-amino-8-methyl-6-(trifluoromethyl)-9H-pyrimido[4,5-b]indol-9-yl)acetyl)-N-(6-bromopyridin-2-yl)pyrrolidine-2-carboxamide]
< 100	Nc1ncnc2c1c1nc(-c3ccncc3)ccc1n2CC(=O)N1[C@@H]2C[C@@H]2C[C@H]1C(=O)Nc1cccc(Br)n1 [Compound 307c, (1R,3S,5R)-2-(2-(4-amino-6-(pyridin-4-yl)-9H-pyrido[2′,3′:4,5]pyrrolo[2,3-d]pyrimidin-9-yl)acetyl)-N-(6-bromopyridin-2-yl)-2-azabicyclo[3.1.0]hexane-3-carboxamide]
< 100	Cc1ncc(-c2cc(C)c3c(c2)c2c(N)ncnc2n3CC(=O)N2[C@@H]3C[C@@H]3C[C@H]2C(=O)Nc2cccc(Br)n2)cn1 [Compound 308c, (1R,3S,5R)-2-(2-(4-amino-8-methyl-6-(2-methylpyrimidin-5-yl)-9H-pyrimido[4,5-b]indol-9-yl)acetyl)-N-(6-bromopyridin-2-yl)-2-azabicyclo[3.1.0]hexane-3-carboxamide]
< 100	Cc1ncc(-c2cc(C)c3c(c2)c2c(N)ncnc2n3CC(=O)N2[C@H](C(=O)Nc3cccc(Br)n3)C[C@@]3(C)C[C@@H]23)cn1 [Compound 309a, (1R,3S,5R)-2-(2-(4-amino-8-methyl-6-(2-methylpyrimidin-5-yl)-9H-pyrimido[4,5-b]indol-9-yl)acetyl)-N-(6-bromopyridin-2-yl)-5-methyl-2-azabicyclo[3.1.0]hexane-3-carboxamide]
< 100	Cc1ncc(-c2cc(C)c3c(c2)c2c(N)ncnc2n3CC(=O)N2[C@@H]3C[C@@H]3C[C@H]2C(=O)Nc2nc(Br)ccc2C)cn1 [Compound 310a, (1R,3S,5R)-2-(2-(4-amino-8-methyl-6-(2-methylpyrimidin-5-yl)-9H-pyrimido[4,5-b]indol-9-yl)acetyl)-N-(6-bromo-3-methylpyridin-2-yl)-2-azabicyclo[3.1.0]hexane-3-carboxamide]
< 100	Cc1ncc(-c2cc(C)c3c(c2)c2c(N)ncnc2n3CC(=O)N2[C@H](C(=O)Nc3nc(Br)ccc3C)C[C@@]3(C)C[C@@H]23)cn1 [Compound 311a, (1R,3S,5R)-2-(2-(4-amino-8-methyl-6-(2-methylpyrimidin-5-yl)-9H-pyrimido[4,5-b]indol-9-yl)acetyl)-N-(6-bromo-3-methylpyridin-2-yl)-5-methyl-2-azabicyclo[3.1.0]hexane-3-carboxamide]
< 100	Cc1ncc(-c2cc(C)c3c(c2)c2c(N)ncnc2n3CC(=O)N2C[C@H](F)C[C@H]2C(=O)Nc2cccc(Br)n2)cn1 [Compound 312a, (2S,4R)-1-(2-(4-amino-8-methyl-6-(2-methylpyrimidin-5-yl)-9H-pyrimido[4,5-b]indol-9-yl)acetyl)-N-(6-bromopyridin-2-yl)-4-fluoropyrrolidine-2-carboxamide]
< 100	Cc1ncc(NC(=O)[C@@H]2C[C@H]3C[C@H]3N2C(=O)Cn2c3ncnc(N)c3c3cc(C(F)(F)F)cc(C)c32)nc1Br [Compound 313b, (1R,3S,5R)-2-(2-(4-amino-8-methyl-6-(trifluoromethyl)-9H-pyrimido[4,5-b]indol-9-yl)acetyl)-N-(6-bromo-5-methylpyrazin-2-yl)-2-azabicyclo[3.1.0]hexane-3-carboxamide]
< 100	Cc1cc(C)c2c(c1)c1c(N)ncnc1n2CC(=O)N1[C@H](C(=O)Nc2cncc(Br)n2)C[C@@]2(C)C[C@@H]12 [Compound 314a, (1R,3S,5R)-2-(2-(4-amino-6,8-dimethyl-9H-pyrimido[4,5-b]indol-9-yl)acetyl)-N-(6-bromopyrazin-2-yl)-5-methyl-2-azabicyclo[3.1.0]hexane-3-carboxamide]
< 100	Cc1ncc(-c2cc(C)c3c(c2)c2c(N)ncnc2n3CC(=O)N2[C@H](C(=O)Nc3cccc(Cl)n3)C[C@@]3(C)C[C@@H]23)cn1 [Compound 315a, (1R,3S,5R)-2-(2-(4-amino-8-methyl-6-(2-methylpyrimidin-5-yl)-9H-pyrimido[4,5-b]indol-9-yl)acetyl)-N-(6-chloropyridin-2-yl)-5-methyl-2-azabicyclo[3.1.0]hexane-3-carboxamide]
< 100	Cc1ncc(-c2cc(C)c3c(c2)c2c(N)ncnc2n3CC(=O)N2C[C@](C)(F)C[C@H]2C(=O)Nc2cccc(Br)n2)cn1 [Compound 316a, (2S,4R)-1-(2-(4-amino-8-methyl-6-(2-methylpyrimidin-5-yl)-9H-pyrimido[4,5-b]indol-9-yl)acetyl)-N-(6-bromopyridin-2-yl)-4-fluoro-4-methylpyrrolidine-2-carboxamide]
100 to 1000	Cc1cc(C(F)(F)F)cc2c3c(N)ncnc3n(CC(=O)N3[C@@H]4C[C@@H]4C[C@H]3C(=O)Nc3nc(Br)ccc3F)c12 [Compound 317c, (1R,3S,5R)-2-(2-(4-amino-8-methyl-6-(trifluoromethyl)-9H-pyrimido[4,5-b]indol-9-yl)acetyl)-N-(6-bromo-3-fluoropyridin-2-yl)-2-azabicyclo[3.1.0]hexane-3-carboxamide]
< 100	Cc1ccc(Cl)nc1NC(=O)[C@@H]1C[C@H]2C[C@H]2N1C(=O)Cn1c2ncnc(N)c2c2cc(C(F)(F)F)cc(C)c21 [Compound 318c, (1R,3S,5R)-2-(2-(4-amino-8-methyl-6-(trifluoromethyl)-9H-pyrimido[4,5-b]indol-9-yl)acetyl)-N-(6-chloro-3-methylpyridin-2-yl)-2-azabicyclo[3.1.0]hexane-3-carboxamide]
< 100	Cc1cc(C(F)(F)F)cc2c3c(N)ncnc3n(CC(=O)N3[C@@H]4C[C@@H]4C[C@H]3C(=O)Nc3nc(Cl)ccc3F)c12 [Compound 319c, (1R,3S,5R)-2-(2-(4-amino-8-methyl-6-(trifluoromethyl)-9H-pyrimido[4,5-b]indol-9-yl)acetyl)-N-(6-chloro-3-fluoropyridin-2-yl)-2-azabicyclo[3.1.0]hexane-3-carboxamide]
< 100	Cc1cc(C(F)(F)F)cc2c3c(N)ncnc3n(CC(=O)N3C[C@](C)(F)C[C@H]3C(=O)Nc3cccc(Cl)n3)c12 [Compound 320c, (2S,4R)-1-(2-(4-amino-8-methyl-6-(trifluoromethyl)-9H-pyrimido[4,5-b]indol-9-yl)acetyl)-N-(6-chloropyridin-2-yl)-4-fluoro-4-methylpyrrolidine-2-carboxamide]
< 100	Cc1cc(C(F)(F)F)cc2c3c(N)ncnc3n(CC(=O)N3C[C@H](F)C[C@H]3C(=O)Nc3cncc(Br)n3)c12 [Compound 321d, (2S,4R)-1-(2-(4-amino-8-methyl-6-(trifluoromethyl)-9H-pyrimido[4,5-b]indol-9-yl)acetyl)-N-(6-bromopyrazin-2-yl)-4-fluoropyrrolidine-2-carboxamide]
< 100	Cc1cc(F)c(Br)nc1NC(=O)[C@@H]1C[C@H]2C[C@H]2N1C(=O)Cn1c2ncnc(N)c2c2cc(C(F)(F)F)cc(C)c21 [Compound 322c, (1R,3S,5R)-2-(2-(4-amino-8-methyl-6-(trifluoromethyl)-9H-pyrimido[4,5-b]indol-9-yl)acetyl)-N-(6-bromo-5-fluoro-3-methylpyridin-2-yl)-2-azabicyclo[3.1.0]hexane-3-carboxamide]

— patent US12679843B2, “Pyrrolopyrimidine amines as complement inhibitors” (BioCryst Pharmaceuticals, Inc., priority 2020, dated 2026)
